{"source": "patent US20050144654A1", "about": "“Procedure for screening of neuroactive substance and the associated neural plasticity” (COUNCIL OF SCIENTIFIC & INDUSTRIAL RESEARCH, priority 2003, published 2005)", "key": {"[1]": {"test_system": "Drosophila melanogaster adult males (wild type Oregon-R strain)", "assay": "Negative geotaxis assay (height climbed, climbing speed)", "format": "in vivo", "details": "for Height climbed by flies, Mean / Climbing speed of flies, Mean: n=30", "method": "(§1) Unless otherwise mentioned, standard methods of fly manipulation were followed. Standard fly medium consisting of agar-agar, maize powder, brown sugar, dried yeast and nipagin was used. Flies were cultured at 22±1° C., 60% RH, and 12 hrs light (9 AM to 9 PM) and 12 hours dark cycle. D. melanogaster wild type Oregon-R strain was used in the experiment. To obtain males for control and drug treatment, flies from identical cultures grown in glass vials were first allowed to lay eggs in milk bottles containing medium. Flies were shifted to fresh bottles every 12 hr. First 4 sets of bottles were discarded. Flies that emerged in subsequent bottles were only used. Those that emerged in the beginning were first discarded and then flies were collected twice at 12 hr interval. Flies collected each time were kept separately in a single bottle. Two days after first collection, males and females from both the bottles were separated. Males were then pooled together and shifted to a new bottle. Flies were used for control or drug treatment two days later.\n(§2) Following morning after pooling males for treatment, drugs (Sigma-Aldrich Co, St. Louis, U.S.A.) were first dissolved in distilled water at following concentration: 33.3 mg/ml of strychnine (STR), 40 mg/ml of pentylenetetrazol (PTZ), 20 mg/ml of pilocarpine-hydrochloride (PILO), 20 mg/ml of tetraethylammonium chloride (TEA), 10 mg/ml of lithium chloride (LICA), and 10.5 mg/ml of ethosuximide (ESD). Appropriate volume of freshly made drug solutions were then poured in molten fly media, and mixed thoroughly, to achieve a final concentration of 3.33 mg/ml of STR, 4 mg/ml of PTZ, 2 mg/ml of PILO, 2 mg/ml of TEA, 1 mg/ml of LICA, and 1.05 mg/ml of ESD. For control, i.e., normal food (NF), distilled water of same volume as drug solution was added in the medium and mixed. Following this, the molten media was dispensed in glass vials, stored overnight at 4° C. and then used for above treatment of flies. Thirty male flies were shifted to each of the seven treatment vials, NF, STR, PTZ, PILO, TEA, LICA and ESD. Flies were maintained at 22±1° C., 60% RH, and 12 hrs light (9 AM to 9 PM) and 12 hours dark cycle.\n(§3) Negative geotaxis assays for measuring height climbed and climbing speed, and horizontal locomotion assay for measuring distance walked—were performed at room temperature, between 9 AM to 9 PM. They were all performed at a specified area in a room, where same light sources were always used. While measuring various locomotor activities, extreme care was taken to ensure that the room is quiet, and the table onto which assays were performed undisturbed and vibration free. Utmost care was taken to ensure identical handling of flies, in minutest details. For measuring height climbed, climbing speed and distance walked, a single fly was randomly selected at a time. This was achieved by first inverting flies from a given treatment vial into an empty vial and then continuously and gently shaking and inverting both the vials in such a way that a single fly is finally trapped in the empty vial. Once trapped, all the three locomotor activities were measured using the same fly, height climbed, climbing speed and distance walked, in that order. One fly each from NF, STR, PTZ, PILO, TEA, LICA, and ESD, selected randomly, was first scored and then the same exercise was repeated for another two flies. Once a fly was scored for all the three locomotor activities, it was discarded. Flies were particularly checked for intact legs and wings, before they were used in negative geotaxis and horizontal locomotion assays.\n(§4) A glass tube of 1.7 cm diameter and […], along with two cotton plugs were used in negative geotaxis and horizontal locomotion assays. The tube was length wise marked with lines at every cm. Three flies from each treatment were assayed. Each fly was assayed 10 times in succession."}, "[2]": {"test_system": "Drosophila melanogaster adult males (wild type Oregon-R strain)", "assay": "Horizontal locomotion assay (distance walked)", "format": "in vivo", "details": "for Distance walked by flies, Mean: n=30; for distance walked than the control: 31 day of drug withdrawal, result in words", "method": "as §1, §2, §3, §4"}, "[3]": {"details": "4th day after drug withdrawal (21st day of beginning of treatment)"}, "[4]": {"details": "31st day after drug withdrawal (48th day of beginning of treatment)"}, "[5]": {"details": "31st day after drug withdrawal, result in words"}, "[6]": {"details": "day 7 of the beginning of treatment, drug in fly medium"}, "[7]": {"details": "day 7 of the beginning of treatment, result in words"}}, "note": "Structures can show the parent of a compound that is named as a salt. Marks after values point to notes of the source that are not given here."}
{"smiles": "CCC1(C)CC(=O)NC1=O", "note": "(centres unmarked) [ESD, ethosuximide]", "values": [{"measurement": "Height climbed by flies, Mean", "setting": "[1]; [3]", "result": "32.66*** cm"}, {"measurement": "Climbing speed of flies, Mean", "setting": "[1]; 4th day after drug withdrawal", "result": "1.5*** cm/sec"}, {"measurement": "height climbed compared to NF", "setting": "[1]; 4th day after drug withdrawal, result in words", "result": "increase"}, {"measurement": "Height climbed by flies, Mean", "setting": "[1]; [4]", "result": "19.5*** cm"}, {"measurement": "Climbing speed of flies, Mean", "setting": "[1]; 31st day after drug withdrawal", "result": "1.52*** cm/sec"}, {"measurement": "climbing speed than the control (Table 2)", "setting": "[1]; [5]", "result": "greater"}, {"measurement": "Climbing speed, Mean", "setting": "[1]; [6]", "result": 0.98, "unit": "cm/s"}, {"measurement": "Height climbed, Mean", "setting": "[1]; [6]", "result": "25.66* cm"}, {"measurement": "height climbed compared to NF, the control", "setting": "[1]; [7]", "result": "increase"}, {"measurement": "Distance walked by flies, Mean", "setting": "[2]; 4th day after drug withdrawal", "result": "40.16*** cm marks crossed per minute"}, {"measurement": "Distance walked by flies, Mean", "setting": "[2]; 31st day after drug withdrawal", "result": "30.63 cm marks crossed per minute"}, {"measurement": "Distance walked, Mean", "setting": "[2]; [6]", "result": "37.1 cm marks crossed per minute"}]}
{"smiles": "[Cl-].[Li+]", "note": "[LICA, lithium chloride]", "values": [{"measurement": "Height climbed by flies, Mean", "setting": "[1]; [3]", "result": 25.33, "unit": "cm"}, {"measurement": "Climbing speed of flies, Mean", "setting": "[1]; 4th day after drug withdrawal", "result": "1.22* cm/sec"}, {"measurement": "Height climbed by flies, Mean", "setting": "[1]; [4]", "result": "11.4* cm"}, {"measurement": "Climbing speed of flies, Mean", "setting": "[1]; 31st day after drug withdrawal", "result": "1.3*** cm/sec"}, {"measurement": "climbing speed than the control (Table 2)", "setting": "[1]; [5]", "result": "lower"}, {"measurement": "Climbing speed, Mean", "setting": "[1]; [6]", "result": "1.9*** cm/sec"}, {"measurement": "Height climbed, Mean", "setting": "[1]; [6]", "result": "35.8*** cm"}, {"measurement": "height climbed compared to NF, the control", "setting": "[1]; [7]", "result": "increase"}, {"measurement": "Distance walked by flies, Mean", "setting": "[2]; 4th day after drug withdrawal", "result": "33*** cm marks crossed per minute"}, {"measurement": "Distance walked by flies, Mean", "setting": "[2]; 31st day after drug withdrawal", "result": "6.93*** cm marks crossed per minute"}, {"measurement": "distance walked than the control", "setting": "[2]", "result": "lesser"}, {"measurement": "Distance walked, Mean", "setting": "[2]; [6]", "result": "34.23 cm marks crossed per minute"}]}
{"smiles": "CC[C@@H]1C(=O)OC[C@@H]1Cc1cncn1C", "note": "[PILO, pilocarpine-hydrochloride]", "values": [{"measurement": "Height climbed by flies, Mean", "setting": "[1]; [3]", "result": 19.96, "unit": "cm"}, {"measurement": "Climbing speed of flies, Mean", "setting": "[1]; 4th day after drug withdrawal", "result": "1.32** cm/sec"}, {"measurement": "Height climbed by flies, Mean", "setting": "[1]; [4]", "result": 16.46, "unit": "cm"}, {"measurement": "Climbing speed of flies, Mean", "setting": "[1]; 31st day after drug withdrawal", "result": "1.14** cm/sec"}, {"measurement": "Climbing speed, Mean", "setting": "[1]; [6]", "result": "1.52*** cm/sec"}, {"measurement": "Height climbed, Mean", "setting": "[1]; [6]", "result": "34.66*** cm"}, {"measurement": "height climbed compared to NF, the control", "setting": "[1]; [7]", "result": "increase"}, {"measurement": "Distance walked by flies, Mean", "setting": "[2]; 4th day after drug withdrawal", "result": "33.83** cm marks crossed per minute"}, {"measurement": "Distance walked by flies, Mean", "setting": "[2]; 31st day after drug withdrawal", "result": "21.16 cm marks crossed per minute"}, {"measurement": "Distance walked, Mean", "setting": "[2]; [6]", "result": "48.53*** cm marks crossed per minute"}]}
{"smiles": "C1CCc2nnnn2CC1", "note": "[PTZ, pentylenetetrazol]", "values": [{"measurement": "Climbing speed of flies, Mean", "setting": "[1]; 4th day after drug withdrawal", "result": "1.25** cm/sec"}, {"measurement": "Climbing speed of flies, Mean", "setting": "[1]; 31st day after drug withdrawal", "result": "1.37*** cm/sec"}, {"measurement": "climbing speed than the control (Table 2)", "setting": "[1]; [5]", "result": "lower"}, {"measurement": "Climbing speed, Mean", "setting": "[1]; 168 h", "result": "1.63*** cm/sec"}, {"measurement": "Height climbed, Mean", "setting": "[1]; 168 h", "result": "29.13*** cm"}, {"measurement": "height climbed compared to NF, the control", "setting": "[1]; [7]", "result": "increase"}, {"measurement": "Distance walked by flies, Mean", "setting": "[2]; 4th day after drug withdrawal", "result": "28.03*** cm marks crossed per minute"}, {"measurement": "Distance walked by flies, Mean", "setting": "[2]; 31st day after drug withdrawal", "result": "12.5* cm marks crossed per minute"}, {"measurement": "Distance walked, Mean", "setting": "[2]; 168 h", "result": "42.5** cm marks crossed per minute"}, {"measurement": "distance walked than the control", "setting": "[2]", "result": "lesser"}]}
{"smiles": "O=C1C[C@@H]2OCC=C3CN4CC[C@]56c7ccccc7N1[C@H]5[C@H]2[C@H]3C[C@H]46", "note": "[STR, strychnine]", "values": [{"measurement": "Height climbed by flies, Mean", "setting": "[1]; [3]", "result": 26.26, "unit": "cm"}, {"measurement": "Climbing speed of flies, Mean", "setting": "[1]; 4th day after drug withdrawal", "result": "1.29** cm/sec"}, {"measurement": "Height climbed by flies, Mean", "setting": "[1]; [4]", "result": 15.8, "unit": "cm"}, {"measurement": "Climbing speed of flies, Mean", "setting": "[1]; 31st day after drug withdrawal", "result": "1.04* cm/sec"}, {"measurement": "Climbing speed, Mean", "setting": "[1]; [6]", "result": "1.53*** cm/sec"}, {"measurement": "Height climbed, Mean", "setting": "[1]; [6]", "result": "33.36*** cm"}, {"measurement": "Distance walked by flies, Mean", "setting": "[2]; 4th day after drug withdrawal", "result": "43.66 cm marks crossed per minute"}, {"measurement": "Distance walked by flies, Mean", "setting": "[2]; 31st day after drug withdrawal", "result": "27.66 cm marks crossed per minute"}, {"measurement": "Distance walked, Mean", "setting": "[2]; [6]", "result": "39.33* cm marks crossed per minute"}]}
{"smiles": "CC[N+](CC)(CC)CC.[Cl-]", "note": "[TEA, tetraethylammonium chloride]", "values": [{"measurement": "Height climbed by flies, Mean", "setting": "[1]; [3]", "result": 22.13, "unit": "cm"}, {"measurement": "Climbing speed of flies, Mean", "setting": "[1]; 4th day after drug withdrawal", "result": 1.11, "unit": "cm/s"}, {"measurement": "Height climbed by flies, Mean", "setting": "[1]; [4]", "result": 16.2, "unit": "cm"}, {"measurement": "Climbing speed, Mean", "setting": "[1]; [6]", "result": "1.67*** cm/sec"}, {"measurement": "Height climbed, Mean", "setting": "[1]; [6]", "result": "32*** cm"}, {"measurement": "height climbed compared to NF, the control", "setting": "[1]; [7]", "result": "increase"}, {"measurement": "Distance walked by flies, Mean", "setting": "[2]; 4th day after drug withdrawal", "result": "26.76*** cm marks crossed per minute"}, {"measurement": "Distance walked by flies, Mean", "setting": "[2]; 31st day after drug withdrawal", "result": "27.16 cm marks crossed per minute"}, {"measurement": "Distance walked, Mean", "setting": "[2]; [6]", "result": "45.1*** cm marks crossed per minute"}]}
